Test results taken from ChEMBL document CHEMBL4680309, “Discovery of a potent β-catenin destabilizer for overcoming the resistance of 5-fluorouracil in colorectal cancer” (Bioorg Med Chem, 2021).
The source made the active and inactive calls. No cut-off for these calls is given here.

Columns and labels:
HCT-116 [1] = test: Cytotoxicity against human HCT-116 cells harboring p53 knock out gene assessed as reduction in cell viability incubated for 72 hrs by SRB assay; format: functional, cell-based; conditions: HCT-116, 72 h
[2] = Resistance index, ratio of IC50 for cytotoxicity against 5-FU resistant human HCT-8 cells to IC50 for cytotoxicity against human HCT-8 cells; format: functional
[3] = Resistance index, ratio of IC50 for cytotoxicity against human HCT-116 cells harboring p53 knock out gene to IC50 for cytotoxicity against human HCT-116 cells; format: functional
HCT-8 [4] = test: Cytotoxicity against human HCT-8 cells assessed as reduction in cell viability incubated for 72 hrs by SRB assay; conditions: HCT-8, 72 h
HCT-8 [5] = test: Cytotoxicity against 5-FU resistant human HCT-8 cells assessed as reduction in cell viability incubated for 72 hrs by SRB assay; format: functional, cell-based; conditions: HCT-8, 72 h
HCT-116 [6] = test: Cytotoxicity against human HCT-116 cells assessed as reduction in cell viability incubated for 72 hrs by SRB assay; conditions: HCT-116, 72 h
HCT-8 [7] = test: Cytotoxicity against human HCT-8 cells assessed as reduction in cell viability at 100 uM incubated for 72 hrs by SRB assay; format: functional, cell-based
HCT-8 [8] = test: Inhibition of Wnt/beta-Catenin signaling in 5-FU resistant human HCT-8 cells assessed as reduction in cyclin D1 expression incubated for 24 hrs by Western blot analysis; format: cell-based; conditions: dose 20-100 µM
HCT-8 [9] = test: Effect on beta-Catenin mRNA expression in human HCT-8 cells at 100 uM incubated for 24 hrs by qRT-PCR analysis; format: functional, cell-based
[10] = Cytotoxicity against human RKOE6 cells assessed as reduction in cell viability incubated for 72 hrs by SRB assay; conditions: RKOE6, 72 h
HCT-8 [11] = test: Effect on beta-Catenin mRNA expression in human HCT-8 cells at 50 uM incubated for 24 hrs by qRT-PCR analysis; format: functional, cell-based
HCT-8 [12] = test: Inhibition of Wnt/beta-Catenin signaling in 5-FU resistant human HCT-8 cells assessed as reduction in beta-catenin level incubated for 24 hrs by Western blot analysis; format: cell-based; conditions: dose 20-100 µM
HCT-8 [13] = test: Inhibition of Wnt/beta-Catenin signaling in human HCT-8 cells assessed as reduction in beta-catenin level incubated for 24 hrs by Western blot analysis; format: cell-based; conditions: dose 20-100 µM
LoVo = test: Cytotoxicity against human LoVo cells assessed as reduction in cell viability incubated for 72 hrs by SRB assay
HCT-8 [14] = test: Inhibition of Wnt/beta-Catenin signaling in 5-FU resistant human HCT-8 cells assessed as reduction in survivin expression incubated for 24 hrs by Western blot analysis; format: cell-based; conditions: dose 20-100 µM
[15] = target: T1, Catenin beta-1 (Homo sapiens) (UniProt P35222); test: Degradation of beta-catenin (unknown origin) transfected in 5-FU resistant human HCT-8 cells assessed as reduction in survivin mRNA expression at 50 uM incubated for 24 hrs by qRT-PCR analysis; format: cell-based
T1 sequence (whole entry): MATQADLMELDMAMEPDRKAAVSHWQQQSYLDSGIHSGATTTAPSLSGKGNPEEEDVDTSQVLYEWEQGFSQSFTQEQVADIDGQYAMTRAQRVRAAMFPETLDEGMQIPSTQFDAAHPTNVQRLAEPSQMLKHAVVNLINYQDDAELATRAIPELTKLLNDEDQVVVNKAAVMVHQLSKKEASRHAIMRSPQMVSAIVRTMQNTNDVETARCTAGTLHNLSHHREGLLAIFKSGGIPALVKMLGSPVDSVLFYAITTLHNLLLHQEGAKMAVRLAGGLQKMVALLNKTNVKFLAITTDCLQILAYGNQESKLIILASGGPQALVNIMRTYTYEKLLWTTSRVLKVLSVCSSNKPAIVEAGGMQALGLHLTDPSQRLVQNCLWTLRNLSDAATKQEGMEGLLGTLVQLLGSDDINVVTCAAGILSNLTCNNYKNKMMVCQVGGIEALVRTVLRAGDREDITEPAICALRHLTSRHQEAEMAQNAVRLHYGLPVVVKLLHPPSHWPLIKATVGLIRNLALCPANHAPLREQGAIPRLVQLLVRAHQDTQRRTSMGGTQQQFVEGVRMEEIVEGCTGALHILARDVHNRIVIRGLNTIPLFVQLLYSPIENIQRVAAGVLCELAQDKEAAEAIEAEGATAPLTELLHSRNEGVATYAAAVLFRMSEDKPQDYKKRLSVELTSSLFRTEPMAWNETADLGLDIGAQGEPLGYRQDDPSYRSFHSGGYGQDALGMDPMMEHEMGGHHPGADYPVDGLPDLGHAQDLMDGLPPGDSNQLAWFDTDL

HCT-8 [16] = test: Inhibition of Wnt/beta-Catenin signaling in human HCT-8 cells assessed as reduction in survivin expression incubated for 24 hrs by Western blot analysis; format: cell-based; conditions: dose 20-100 µM
[17] = target: T1, Catenin beta-1 (Homo sapiens); test: Degradation of beta-Catenin in human HCT-8 cells assessed as reduction in Wnt-3a-induced beta-Catenin level at 50 to 100 uM incubated for 24 hrs by Western blot analysis; format: cell-based; conditions: dose 50-100 µM
HCT-8 [18] = test: Inhibition of Wnt/beta-Catenin signaling in 5-FU resistant human HCT-8 cells assessed as reduction in c-myc expression incubated for 24 hrs by Western blot analysis; format: cell-based; conditions: dose 20-100 µM
[19] = target: T1, Catenin beta-1 (Homo sapiens); test: Degradation of beta-catenin (unknown origin) transfected in human HCT-8 cells assessed as reduction in survivin mRNA expression at 50 uM incubated for 24 hrs by qRT-PCR analysis; format: cell-based
HCT-8 [20] = test: Inhibition of Wnt/beta-Catenin signaling in human HCT-8 cells assessed as reduction in c-myc expression incubated for 24 hrs by Western blot analysis; format: cell-based; conditions: dose 20-100 µM
[21] = target: T1, Catenin beta-1 (Homo sapiens); test: Degradation of beta-catenin (unknown origin) transfected in human HCT-8 cells assessed as reduction in c-myc mRNA expression at 50 uM incubated for 24 hrs by qRT-PCR analysis; format: cell-based
HT-29 = test: Cytotoxicity against human HT-29 cells assessed as reduction in cell viability incubated for 72 hrs by SRB assay; conditions: HT-29, 72 h
HCT-8 [22] = test: Inhibition of Wnt/beta-Catenin signaling in human HCT-8 cells assessed as reduction in cyclin D1 expression incubated for 24 hrs by Western blot analysis; format: cell-based; conditions: dose 20-100 µM
[23] = target: T1, Catenin beta-1 (Homo sapiens); test: Degradation of beta-catenin (unknown origin) transfected in human HCT-8 cells assessed as reduction in cyclin D1 mRNA expression at 50 uM incubated for 24 hrs by qRT-PCR analysis; format: cell-based
[24] = target: T1, Catenin beta-1 (Homo sapiens); test: Degradation of beta-catenin (unknown origin) transfected in 5-FU resistant human HCT-8 cells assessed as reduction in c-myc mRNA expression at 50 uM incubated for 24 hrs by qRT-PCR analysis; format: cell-based
SW480 = test: Cytotoxicity against human SW480 cells assessed as reduction in cell viability incubated for 72 hrs by SRB assay; conditions: SW480, 72 h
[25] = target: T1, Catenin beta-1 (Homo sapiens); test: Degradation of beta-catenin (unknown origin) transfected in 5-FU resistant human HCT-8 cells assessed as reduction in cell viability at 50 uM incubated for 24 hrs by SRB assay; format: cell-based
[26] = target: T1, Catenin beta-1 (Homo sapiens); test: Degradation of beta-catenin (unknown origin) transfected in human HCT-8 cells assessed as reduction in cell viability at 50 uM incubated for 24 hrs by SRB assay; format: cell-based
[27] = target: T1, Catenin beta-1 (Homo sapiens); test: Degradation of beta-catenin (unknown origin) transfected in 5-FU resistant human HCT-8 cells assessed as reduction in cyclin D1 mRNA expression at 50 uM incubated for 24 hrs by qRT-PCR analysis; format: cell-based
HCT-8 [28] = test: Effect on beta-Catenin mRNA expression in 5-FU resistant human HCT-8 cells at 50 to 100 uM incubated for 24 hrs by qRT-PCR analysis; format: functional, cell-based; conditions: dose 50-100 µM

O=c1[nH]cc(F)c(=O)[nH]1 [FLUOROURACIL]
IC50 (HCT-116 [1]): 4.3 µM
Ratio IC50 [2]: 21
Ratio IC50 [3]: 2.5
IC50 (HCT-8 [4]): 2.2 µM
IC50 (HCT-8 [5]): 47 µM
IC50 (HCT-116 [6]): 1.7 µM

CC[C@H]1C(=O)O[C@@H]2CCCn3cccc3[C@H]21
inhibition (HCT-8 [7]): inactive

CC[C@@H]1C(=O)O[C@@H]2CCCn3cccc3[C@@H]12
inhibition (HCT-8 [7]): inactive

C=C1C(=O)O[C@@H]2CCCn3cccc3[C@@H]12
inhibition (HCT-8 [8]): Dose-dependent effect
Activity (HCT-8 [9]): inactive
IC50 [10]: 7.93 µM
IC50 (HCT-116 [1]): 14 µM
Activity (HCT-8 [11]): Active
inhibition (HCT-8 [12]): Dose-dependent effect
inhibition (HCT-8 [13]): Dose-dependent effect
IC50 (LoVo): 10.2 µM
inhibition (HCT-8 [14]): Dose-dependent effect
Ratio IC50 [2]: 1
Activity [15]: inactive
inhibition (HCT-8 [16]): Dose-dependent effect
Activity [17]: Active
Ratio IC50 [3]: 1
inhibition (HCT-8 [18]): Dose-dependent effect
Activity [19]: inactive
inhibition (HCT-8 [7]): inactive
inhibition (HCT-8 [20]): Dose-dependent effect
IC50 (HCT-8 [4]): 11 µM
IC50 (HCT-8 [5]): 11 µM
IC50 (HCT-116 [6]): 13 µM
Activity [21]: inactive
IC50 (HT-29): 8.52 µM
inhibition (HCT-8 [22]): Dose-dependent effect
Activity [23]: inactive
Activity [24]: inactive
IC50 (SW480): 16.8 µM
Activity [25]: inactive
Activity [26]: inactive
Activity [27]: inactive
Activity (HCT-8 [28]): inactive

CCCCc1ccc2n1CCC[C@H]1OC(=O)[C@@H](C)[C@H]21
inhibition (HCT-8 [7]): inactive

C=C1C(=O)O[C@@H]2CCCn3c(C=O)ccc3[C@@H]12
inhibition (HCT-8 [7]): inactive
